Values of other authors as cited in publication PMC10093509, “Diagnosis and Treatment of Peripheral and Cranial Nerve Tumors with Expert Recommendations: An EUropean Network for RAre CANcers (EURACAN) Initiative” (Cancers, 2023).
Where two headings read alike, the source gives them in different places. *1 amine or outer side, *2 acyl side, *3 side chain or, on linkers, in order; H or OH if unused. Where a SMILES comes first, the peptide text is derived from it. Bridges are numbered along the chain shown (N, C = ends). Roman numbers before positions name the chains, in order. [ ]: non-standard residue; d: D form. Actinocin(9to1) = Cc1c2oc3c(C)ccc(C(=O)[*:1])c3nc-2c(C(=O)[*:2])c(N)c1=O; NMeV = CN[C@H](C(=O)O)C(C)C; Sar = CNCC(=O)O

Tests used:
[1] = test system: plexiform neurofibromas (PN) of neurofibromatosis; design: method as in PMID 23099009, PMID 24500418, PMID 24753394, PMID 24851266, PMID 25314964; conditions: initial studies
MPNST [2] = test system: MPNST; design: method as in PMID 20838322; conditions: alone or in combination
[3] = test system: NF1 PNs, progressive or causing significant neurological symptoms
MPNST [4] = test system: MPNST; design: method as in PMID 19451436; conditions: 15 patients
[5] = test system: progressive or symptomatic inoperable PNs
advanced MPNST = test system: advanced MPNST; design: method as in PMID 32638374
[6] = test system: MPNST harboring a novel SNRNP70-NTRK3 fusion gene
[7] = test system: unresectable, symptomatic, and progressive PNs; conditions: adults
NF1 inoperable PNs [8] = test system: NF1 inoperable PNs; design: method as in PMID 28029918
NF1 inoperable PNs [9] = test system: NF1 inoperable PNs
asymptomatic PNs = test system: asymptomatic PNs; design: method as in PMID 35467749; conditions: median 41 cycles (2–67)
spinal PNs = test system: spinal PNs; design: method as in PMID 35467749, PMID 32939452
NF1-associated MPNST = test system: NF1-associated MPNST; design: method as in PMID 35100687; conditions: one patient
MPNST [10] = test system: MPNST; design: method as in PMID 24618336
MPNST [11] = test system: MPNST; design: method as in PMID 26710211; conditions: 14 MPNST patients
[12] = test system: progressive and/or symptomatic PNs; design: method as in PMID 33507822
[13] = test system: sporadic metastatic MPNST; design: method as in PMID 31383651; conditions: one patient; following four cycles
MPNST [14] = test system: MPNST; design: method as in doi:10.1200/jco.2006.24.18_suppl.9518
MPNST [15] = test system: MPNST; design: method as in PMID 27502708
[16] = test system: NF-1-associated PNs or low-grade gliomas; design: method as in PMID 36015104; conditions: meta-analysis
NF-1-associated PN = test system: NF-1-associated PN; design: method as in doi:10.1200/JCO.2018.36.15_suppl.10504
MPNST [17] = test system: MPNST; design: method as in PMID 19451433; conditions: seven MPNST patients
[18] = test system: progressive VS associated with NF2; design: method as in PMID 22805104
[19] = test system: progressive vestibular schwannomas (VS) associated with NF2; design: method as in PMID 26976425; conditions: 7.5 mg/kg every 3 weeks
[20] = test system: unresectable or metastatic MPNST; design: method as in PMID 33512749; conditions: one patient with NF1-associated MPNST; selinexor alone

For interferon alfa-2b, the “benefit in PN” value [1] is given as “limited benefits”.

For `Cc1c2oc3c(C)ccc(C(=O)N[C@@H]4C(=O)N[C@H](C(C)C)C(=O)N5CCC[C@H]5C(=O)N(C)CC(=O)N(C)[C@@H](C(C)C)C(=O)O[C@@H]4C)c3nc-2c(C(=O)N[C@@H]2C(=O)N[C@H](C(C)C)C(=O)N3CCC[C@H]3C(=O)N(C)CC(=O)N(C)[C@@H](C(C)C)C(=O)O[C@@H]2C)c(N)c1=O` [dactinomycin] (I: T[dV]P[Sar][NMeV] / II: T[dV]P[Sar][NMeV]; ester I:1-I:C, II:1-II:C; linker I:N-II:N via Actinocin(9to1)), the “results in treatment of MPNST” value (MPNST [2]) is given as “disappointing results”.

For `Cn1cncc1[C@@](N)(c1ccc(Cl)cc1)c1ccc2c(c1)c(-c1cccc(Cl)c1)cc(=O)n2C` [tipifarnib], the “benefit in PN” value [1] is listed as “limited benefits”.

For `Cn1cnc2c(F)c(Nc3ccc(Br)cc3F)c(C(=O)NOCCO)cc21` [binimetinib], the “discontinuation of treatment (patients)” value [3] is given as 2 patients, the “dose reduction required for grade 3 adverse events (patients)” value [3] is given as 13 patients and the PR ([3]; 14 out of 19 patients) is given as 73.7%.

In the case of `CNC(=O)c1cc(Oc2ccc(NC(=O)Nc3ccc(Cl)c(C(F)(F)F)c3)cc2)ccn1` [sorafenib], the radiological responses (MPNST [4]) is given as “absence of radiological responses”.

For `COc1cc2nccc(Oc3ccc(NC(=O)C4(C(=O)Nc5ccc(F)cc5)CC4)cc3)c2cc1OC` [Cabozantinib], the “patients who experienced grade 3 adverse events” value [5] is given as 38%, the quality of life [5] is given as “no significant improvement” and the ORR ([5]; NF-105) is given as 42%. For the same compound, the intensity of pain ([5]; after four cycles, patients who achieved a PR) was “early decrease” and the tumor volume reduction ([5]; from 2.8% to −38.0%) was 15%.

For `CC[C@]1(O)C[C@H]2CN(CCc3c([nH]c4ccccc34)[C@@](C(=O)OC)(c3cc4c(cc3OC)N(C=O)[C@H]3[C@@](O)(C(=O)OC)[C@H](OC(C)=O)[C@]5(CC)C=CCN6CC[C@]43[C@@H]65)C2)C1` [vincristine], the “results in treatment of MPNST” value (MPNST [2]) is listed as “disappointing results”.

In the case of `N.N.[Cl][Pt][Cl]` [cisplatin], the “results in treatment of MPNST” value (MPNST [2]) is listed as “disappointing results”.

In the case of `Cc1ccc(Nc2nccc(N(C)c3ccc4c(C)n(C)nc4c3)n2)cc1S(N)(=O)=O` [pazopanib], the OS (advanced MPNST) is given as 10.6 months, the PFS (advanced MPNST) is given as 5.4 months and the clinical benefit rate (advanced MPNST; at 12 weeks) is given as 50%.

For `O=P1(N(CCCl)CCCl)NCCCO1` (stereo not shown) [cyclophosphamide], the “results in treatment of MPNST” value (MPNST [2]) is given as “disappointing results”.

For `CN1CCN(c2ccc(C(=O)Nc3n[nH]c4ccc(Cc5cc(F)cc(F)c5)cc34)c(NC3CCOCC3)c2)CC1` [entrectinib], the response ([6]; one heavily pretreated patient) is given as “dramatic response” and the duration of response ([6]; one patient) is given as 10 months.

In the case of `CO[C@H]1C[C@@H]2CC[C@@H](C)[C@@](O)(O2)C(=O)C(=O)N2CCCC[C@H]2C(=O)O[C@H]([C@H](C)C[C@@H]2CC[C@@H](O)[C@H](OC)C2)CC(=O)[C@H](C)/C=C(\C)[C@@H](O)[C@@H](OC)C(=O)[C@H](C)C[C@H](C)/C=C/C=C/C=C/1C` [sirolimus], the “benefit in PN” value [1] is listed as “limited benefits”.

In the case of `CO[C@H]1C[C@@H]2CC[C@@H](C)[C@@](O)(O2)C(=O)C(=O)N2CCCC[C@H]2C(=O)O[C@H]([C@H](C)C[C@@H]2CC[C@@H](OCCO)[C@H](OC)C2)CC(=O)[C@H](C)/C=C(\C)[C@@H](O)[C@@H](OC)C(=O)[C@H](C)C[C@H](C)/C=C/C=C/C=C/1C` [everolimus], the “benefit in PN” value [1] is given as “limited benefits”.

In the case of `Cn1cnc2c(F)c(Nc3ccc(Br)cc3Cl)c(C(=O)NOCCO)cc21` [selumetinib], the “increased liver enzymes (patients)” value [7] is given as “five”, the pain intensity [7] is given as “decreased pain intensity” and the “pancreatic enzyme elevation (patients)” value [7] is given as “one”. The “rash (patients)” value [7] was “one”, the ORR ([7]; phase 2) was 69% and the “tumor volume shrinkage as best response” value ([7]; phase 2) was 22%. For the same compound, the “median reduction in tumor volume” value (NF1 inoperable PNs [8]; phase 1) was 31%, the “stable disease (patients)” value (NF1 inoperable PNs [8]; phase 1) was 2 and the “objective response rate (ORR)” value (NF1 inoperable PNs [8]; phase 1, 3–18 years) was 71%. The “median time PR maintained” value (NF1 inoperable PNs [8]; range 6–42) was 23 cycles, the “clinically meaningful improvement in child-reported interference of pain in daily functioning” value (NF1 inoperable PNs [9]; SPRINT) was 38% and the “clinically meaningful improvement in overall health-related QoL” value (NF1 inoperable PNs [9]; SPRINT) was 48%. The “median reduction in tumor volume” value (NF1 inoperable PNs [9]; SPRINT) was 27%, the ORR (NF1 inoperable PNs [9]; SPRINT, 50 patients) was 68% and the “median progression-free survival (PFS)” value (NF1 inoperable PNs [9]; at the time of interim-analysis) was “not reached”. The toxicity (NF1 inoperable PNs [9]; children, creatine kinase increase, rash, paronychia, gastrointestinal toxicity) was “mostly mild and reversible”, the “patients achieving tumor shrinkage” value (asymptomatic PNs) was 72% and the “clinical benefit and radiological response with reduction of spinal canal distortion and/or spinal cord deformity (patients)” value (spinal PNs) was 18/24.

For nivolumab, the response (NF1-associated MPNST) is given as “prolonged PR”.

For `COc1cccc2c1C(=O)c1c(O)c3c(c(O)c1C2=O)C[C@@](O)(C(=O)CO)C[C@@H]3O[C@H]1C[C@H](N)[C@H](O)[C@H](C)O1` [doxorubicin], the “median OS” value (MPNST [10]) is listed as 51 weeks and the “median PFS” value (MPNST [10]) is listed as 16 weeks.

In the case of `Cc1nc(Nc2ncc(C(=O)Nc3c(C)cccc3Cl)s2)cc(N2CCN(CCO)CC2)n1` [dasatinib], the ORR (MPNST [11]) is given as “did not show any ORR”.

For `O=C(NOC[C@H](O)CO)c1ccc(F)c(F)c1Nc1ccc(I)cc1F` [Mirdametinib], the “median reduction in tumor volume” value [12] is listed as 17.1%, the “most frequent AEs” value [12] is listed as “acneiform rash, fatigue, and nausea” and the “patient-reported outcomes over treatment” value [12] is listed as “improvement”.

For pembrolizumab, the response [13] is given as “complete response”.

For `C#Cc1cccc(Nc2ncnc3cc(OCCOC)c(OCCOC)cc23)c1` [erlotinib], the OS (MPNST [14]) is listed as 48 weeks and the PFS (MPNST [14]) is listed as 24 weeks.

In the case of `COc1cc(Nc2ncc3c(n2)-c2ccc(Cl)cc2C(c2c(F)cccc2OC)=NC3)ccc1C(=O)O` [alisertib], the OS (MPNST [15]) is listed as 69 weeks and the PFS (MPNST [15]) is listed as 13 weeks.

For `CC(=O)Nc1cccc(-n2c(=O)n(C3CC3)c(=O)c3c(Nc4ccc(I)cc4F)n(C)c(=O)c(C)c32)c1` [trametinib], the ORR [16] is given as 45.3%, the disease control rate [16] is given as 99.8% and the “duration of radiological response” value (NF-1-associated PN) is given as “more than 12 months”. The PR (NF-1-associated PN; 12 out of 26 patients, interim analysis) was 46% and the side effects (NF-1-associated PN; such as paronychia and rash) was “manageable”.

For `N.N.O=C([O-])C1(C(=O)[O-])CCC1.[Pt+2]` [carboplatin], the “results in treatment of MPNST” value (MPNST [2]) is given as “disappointing results”.

For `c1c[nH]cn1` [imidazole], the “results in treatment of MPNST” value (MPNST [2]) is listed as “disappointing results”.

For `Cc1ccc(NC(=O)c2ccc(CN3CCN(C)CC3)cc2)cc1Nc1nccc(-c2cccnc2)n1` [imatinib], the “benefit in PN” value [1] is listed as “limited benefits”, the best response (MPNST [17]) is listed as “stable disease as the best response in one patient” and the “median PFS” value (MPNST [17]) is listed as 1.9 months.

For `Cc1ccc(=O)n(-c2ccccc2)c1` [pirfenidone], the “benefit in PN” value [1] is listed as “limited benefits”.

In the case of bevacizumab, the “hearing and radiographic outcome” value [18] is given as “remarkable improvement of hearing and objective radiographic responses”, the “partial radiographic response with volume reduction of 20% or more (patients)” value ([19]; 6/14 patients) is given as 43% and the “hearing improvement (patients)” value ([19]; NF2 patients with progressive VS) is given as 36%.

For `O=C(/C=C\n1cnc(-c2cc(C(F)(F)F)cc(C(F)(F)F)c2)n1)NNc1cnccn1` [selinexor], the “duration of disease stabilization” value [20] is given as 13.5 months.
